Laboratory results as given in patent publication US11723908B2, “Quinazoline derivatives as antitumor agents” (SUZHOU ZANRONG PHARMA LIMITED, priority 2018, dated 2023).
Where two headings read alike, the source gives them in different places.

Tests used:
HER2 = HER2 (Homo sapiens (Human), UniProt P04626); assay: BT474 cellular assay (HER2 inhibition), phospho-HER2 ELISA; assay type: cell-based; details: inhibition of phosphor HER2, BT474 cells, 2 hours compound incubation
Description: Assay a) BT474 Cellular Assay (HER2 Inhibition) Inhibition of phosphor HER2 was determined by enzyme-linked immunosorbent assay (ELISA) in BT474 cells. BT474 cell line was purchased from [NT] number HTB-20). Human Phospho-ErbB2 ELISA kit was purchased from R&D systems (catalog number DYC1768). Day 1: When the cells reach 70-90% confluence, cells were trypsinized and re-suspended. 5000 cells per well were seeded to a 384-well plate. The plate was incubated at 37° C. with 5% CO2 for 24 hours. ELISA plate was coated with 2 μg/ml capture antibody, which was incubated at 4° C. overnight. Day 2: 25 nl compounds was dosed by Echo from source plate and the 384-well plate was incubated at 37° C. for 2 hours. 30 μl lysis buffer was added to each well and the 384-well plate was shaken softly at 4° C. for 30 minutes. The ELISA plate was washed, blocked and incubated at room temperature for 1-2 hours. The blocked ELISA plate was washed and 20 μl cell lysate was transferred from the 384-well plate to the ELISA plate, which was incubated overnight at 4° C. Day 3: The ELISA plate was washed 3 times. 25 μl/well detection antibody was added (diluted 1 by 2000 in 1% BSA in PBS). After 2 hours of incubation with detection antibody, the ELISA plate was washed 3 times, 25 μl/well TMB substrate was added and incubated for 10-15 minutes before stop solution was added. Absorbance at 450 nm and 570 nm was read within 30 minutes after adding the stop solution. […] The IC50 results are provided in Table 1 for some exemplary compounds.

hERG channel = hERG channel (Homo sapiens (Human), UniProt Q12809); assay: hERG inhibition, manual patch clamp in HEK 293 cells; assay type: cell-based; details: for IC50: HEK 293 cell line stably expressing hERG channel, manual patch clamp; for hERG liability: conclusion from Table 3
Sequence of hERG channel (Q12809 whole entry): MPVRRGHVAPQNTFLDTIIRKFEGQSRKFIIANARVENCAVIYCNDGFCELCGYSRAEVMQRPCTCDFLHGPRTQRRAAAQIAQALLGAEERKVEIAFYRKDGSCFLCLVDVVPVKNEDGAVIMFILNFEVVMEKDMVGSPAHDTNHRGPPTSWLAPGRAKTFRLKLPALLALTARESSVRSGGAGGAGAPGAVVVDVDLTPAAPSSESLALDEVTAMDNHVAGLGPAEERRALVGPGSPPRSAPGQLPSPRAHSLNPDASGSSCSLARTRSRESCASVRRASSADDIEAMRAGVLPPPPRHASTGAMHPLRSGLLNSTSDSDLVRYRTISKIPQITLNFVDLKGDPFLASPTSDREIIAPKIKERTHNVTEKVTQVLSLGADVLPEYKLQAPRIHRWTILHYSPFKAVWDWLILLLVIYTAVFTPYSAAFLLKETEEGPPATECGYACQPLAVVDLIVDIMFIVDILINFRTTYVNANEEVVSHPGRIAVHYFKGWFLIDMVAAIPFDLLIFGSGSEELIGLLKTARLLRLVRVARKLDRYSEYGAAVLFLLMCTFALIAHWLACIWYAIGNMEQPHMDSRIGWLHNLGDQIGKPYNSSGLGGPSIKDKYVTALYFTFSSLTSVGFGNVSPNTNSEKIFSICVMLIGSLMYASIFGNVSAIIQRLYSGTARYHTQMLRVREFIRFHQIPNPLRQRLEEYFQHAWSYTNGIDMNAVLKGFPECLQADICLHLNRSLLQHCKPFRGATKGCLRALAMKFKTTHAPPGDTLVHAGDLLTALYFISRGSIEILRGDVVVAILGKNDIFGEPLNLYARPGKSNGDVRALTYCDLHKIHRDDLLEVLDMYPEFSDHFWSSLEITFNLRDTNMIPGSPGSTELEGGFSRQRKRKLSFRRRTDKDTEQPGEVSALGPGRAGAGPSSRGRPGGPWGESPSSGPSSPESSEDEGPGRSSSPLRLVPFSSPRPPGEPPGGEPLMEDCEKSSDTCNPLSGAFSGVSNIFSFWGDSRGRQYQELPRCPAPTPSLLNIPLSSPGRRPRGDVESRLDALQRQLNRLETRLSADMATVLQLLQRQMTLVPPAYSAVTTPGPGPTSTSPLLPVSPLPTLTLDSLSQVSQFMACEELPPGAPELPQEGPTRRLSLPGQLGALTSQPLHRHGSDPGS
Description: Assay f): hERG Inhibition Inhibition of hERG channel was conducted in HEK 293 cell line stably expressing hERG channel by manual patch clamp.

[1] = Mouse SOA study for brain penetration; assay type: in vivo; details: for Kp: male, balb/c, mouse, brain, po, 10 mg/kg, read-out: Mouse Kpu, u; for brain penetration in vivo: mouse SOA study, conclusion from Table 3; for Mouse Kpu, u: male balb/c mice, oral 10 mg/kg, AUC 0-7 hr brain/plasma, unbound
Description: Assay e) Mouse SOA Study for Brain Penetration
Six non-fasted male balb/c mice (6-8 weeks, 20-25 g) were orally administered at 10 mg/kg, using a suspension formulation of 1% methylcellulose (MC) in deionized water. Brain and blood samples were collected at 0.25, 0.5, 1, 2, 4, 7 hours after dose. Plasma was obtained by centrifuging the blood samples for 5 min at 4000 g and 4° C. Brain tissue was homogenized following addition of four times the volume of phosphate-buffered saline (pH 7.4). Quantification of the compound in plasma and brain was undertaken by LC-MS/MS. Area under the curve (AUC) was determined from 0 to 7 hours in the brain tissue and plasma.
Total brain to plasma concentration ratio Kp was determined using the equation: Brain Kp=AUC0-7 hr brain/AUC0-7 hr plasma
Unbound brain to plasma ratio was determined using the equation: Brain Kp,uu=Kp*fu,brain/fu,plasma
Unbound fraction (fu, plasma) and unbound fraction (fu, brain) were obtained from in vitro equilibrium dialysis by using plasma and brain homogenate, respectively.

wt-EGFR = wt-EGFR (Homo sapiens (Human), UniProt P00533); assay: NCI H838 cellular assay (wt-EGFR inhibition), phospho-EGFR ELISA; assay type: cell-based
Sequence of wt-EGFR (P00533 25-1210): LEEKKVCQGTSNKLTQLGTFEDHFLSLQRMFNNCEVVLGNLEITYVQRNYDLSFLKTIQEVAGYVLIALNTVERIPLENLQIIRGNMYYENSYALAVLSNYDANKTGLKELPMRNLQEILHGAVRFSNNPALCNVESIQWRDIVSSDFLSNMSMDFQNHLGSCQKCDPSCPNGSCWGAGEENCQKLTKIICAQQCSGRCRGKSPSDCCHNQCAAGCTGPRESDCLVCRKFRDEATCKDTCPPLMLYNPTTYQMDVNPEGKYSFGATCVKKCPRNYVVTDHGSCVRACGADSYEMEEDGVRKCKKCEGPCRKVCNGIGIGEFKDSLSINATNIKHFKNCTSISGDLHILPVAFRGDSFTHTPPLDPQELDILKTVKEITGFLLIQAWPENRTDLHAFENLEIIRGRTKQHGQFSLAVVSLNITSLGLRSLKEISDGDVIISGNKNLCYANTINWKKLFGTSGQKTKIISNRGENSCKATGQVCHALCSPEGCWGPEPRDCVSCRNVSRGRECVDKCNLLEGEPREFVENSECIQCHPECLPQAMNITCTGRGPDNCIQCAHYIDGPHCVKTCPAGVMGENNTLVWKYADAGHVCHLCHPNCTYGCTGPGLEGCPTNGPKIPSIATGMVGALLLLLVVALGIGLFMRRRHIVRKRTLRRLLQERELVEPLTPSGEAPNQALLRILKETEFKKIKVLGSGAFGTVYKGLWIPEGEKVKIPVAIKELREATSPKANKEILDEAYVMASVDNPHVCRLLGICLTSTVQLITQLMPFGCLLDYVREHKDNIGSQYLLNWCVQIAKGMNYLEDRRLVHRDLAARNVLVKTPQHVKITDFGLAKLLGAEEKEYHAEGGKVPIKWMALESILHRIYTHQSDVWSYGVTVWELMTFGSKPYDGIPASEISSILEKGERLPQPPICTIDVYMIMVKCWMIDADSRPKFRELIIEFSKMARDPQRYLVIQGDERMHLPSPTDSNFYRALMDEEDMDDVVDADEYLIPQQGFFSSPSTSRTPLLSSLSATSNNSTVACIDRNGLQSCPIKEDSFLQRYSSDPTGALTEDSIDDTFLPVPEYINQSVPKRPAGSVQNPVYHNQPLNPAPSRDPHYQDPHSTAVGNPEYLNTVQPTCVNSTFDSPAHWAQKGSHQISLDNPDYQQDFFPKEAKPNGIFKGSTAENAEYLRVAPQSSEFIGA
Description: Assay b) NCI H838 Cellular Assay (Wt-EGFR Inhibition) Inhibition of phosphor wt-EGFR was determined by enzyme-linked immunosorbent assay (ELISA) in NCI H838 cells (ATCC, catalog number CRL-5844). Human Phospho-EGFR DuoSet IC ELISA kit was purchased from R&D systems (catalog number DYC1095). Day 1: When the cells reach 70-90% confluence, cells were trypsinized and re-suspended. 5000 cells per well were seeded to a 384-well plate. The plate was incubated at 37° C. with 5% CO2 for 24 hours. Day 2: Cell culture medium was replaced with 40 μL FBS-Free RPMI1640. After 2 hours of starvation, the 384-well plate was dosed with 40 nL of compounds by Echo from source plate and the 384-well plate was incubated at 37° C. with 5% CO2 for 2 hours. After 2 hours of incubation with compounds, EGF (final concentration at 100 ng/ml) was added to the plate which was incubated at 37° C. with 5% CO2 for 5-10 minutes. Medium was discarded from the plate and 30 μl/well lysis buffer was added to the plate which was incubated at 4° C. for 10 minutes. The cell lysates can be stored at −80° C. in cell plates but must be thawed at room temperature for at least 30 minutes prior to use and continuing the assay. ELISA plate was coated by diluting capture antibody to 4 μg/ml with PBS, and 25 μl/well was dispensed to 384 well UltraCruz® ELISA Plate, which was incubated at 4° C. overnight. Day 3: After the plates were washed three times with 100 μl/well of wash buffer, the plates were blocked by adding 75 μl of Block Buffer to each well and incubated at room temperature for 3 hours. After the plates were washed three times with 100 μl/well of wash buffer, 20 μl cell lysate was transferred to the blocked ELISA plate which was incubated for 2 hours at room temperature. After the plates were washed three times with 100 μl/well of wash buffer, 25 μl/well detection antibody (dilute 1 in 900 in assay buffer) was added the plate which was incubated for 2 hours, protected from light. After washed three times, 25 μl/well TMB substrate was added to the ELISA plate which was incubated for about 10-15 min, protected from light before addition of 25 μl/well stop solution. Absorbance was read at 450 nm and 570 nm within 30 minutes.

P-glycoprotein (Pgp) = P-glycoprotein (Pgp) (Homo sapiens (Human), UniProt P08183); assay: MDCK-MDR1 Pgp assessment; assay type: in vitro ADME; details: for Pgp substrate status: conclusion from Table 3; for efflux ratio at 2 h, 1 μM: dog, MDCK-MDR1 cells, 37° C. for 2 hours, read-out: PgpER
Sequence of P-glycoprotein (Pgp) (P08183 whole entry): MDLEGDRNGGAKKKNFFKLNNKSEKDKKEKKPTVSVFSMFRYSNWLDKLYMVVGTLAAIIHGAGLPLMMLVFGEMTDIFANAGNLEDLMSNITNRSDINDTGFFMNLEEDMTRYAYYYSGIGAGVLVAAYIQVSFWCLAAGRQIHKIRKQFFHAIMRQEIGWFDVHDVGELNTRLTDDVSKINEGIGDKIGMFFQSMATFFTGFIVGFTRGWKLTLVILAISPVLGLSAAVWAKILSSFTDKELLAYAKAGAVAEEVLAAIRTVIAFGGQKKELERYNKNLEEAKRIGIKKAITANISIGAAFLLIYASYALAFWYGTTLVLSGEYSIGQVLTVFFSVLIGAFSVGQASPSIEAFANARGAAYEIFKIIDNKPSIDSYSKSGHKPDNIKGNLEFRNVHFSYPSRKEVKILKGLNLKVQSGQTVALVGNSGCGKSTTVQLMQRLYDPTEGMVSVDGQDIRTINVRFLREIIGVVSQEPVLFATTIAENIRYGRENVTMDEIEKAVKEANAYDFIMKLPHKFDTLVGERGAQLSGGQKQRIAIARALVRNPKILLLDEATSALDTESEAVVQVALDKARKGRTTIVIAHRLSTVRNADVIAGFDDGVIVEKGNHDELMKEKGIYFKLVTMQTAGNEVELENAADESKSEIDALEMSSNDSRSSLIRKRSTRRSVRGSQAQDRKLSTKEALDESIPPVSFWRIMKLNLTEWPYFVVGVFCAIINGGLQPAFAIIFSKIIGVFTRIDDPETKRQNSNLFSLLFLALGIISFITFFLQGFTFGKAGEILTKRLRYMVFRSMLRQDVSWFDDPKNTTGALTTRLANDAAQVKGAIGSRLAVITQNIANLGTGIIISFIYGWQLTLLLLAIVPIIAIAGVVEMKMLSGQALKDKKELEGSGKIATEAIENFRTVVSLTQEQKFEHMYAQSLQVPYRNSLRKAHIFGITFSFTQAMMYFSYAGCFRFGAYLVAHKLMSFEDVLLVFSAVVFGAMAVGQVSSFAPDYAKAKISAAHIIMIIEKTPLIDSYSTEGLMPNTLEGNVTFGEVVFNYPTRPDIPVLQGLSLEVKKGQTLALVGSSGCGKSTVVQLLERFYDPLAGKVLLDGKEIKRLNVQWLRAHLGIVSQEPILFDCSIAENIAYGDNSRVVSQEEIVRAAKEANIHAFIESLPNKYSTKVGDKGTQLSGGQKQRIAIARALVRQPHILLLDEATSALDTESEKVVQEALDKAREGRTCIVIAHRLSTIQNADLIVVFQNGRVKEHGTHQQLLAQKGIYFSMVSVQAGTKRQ
Description: Assay c): MDCK-MDR1 Pgp Assessment
Efflux transport mediated by P-glycoprotein (Pgp) was assessed by MDCK-MDR1 cells. The final concentrations of test compounds and control compound were at 1 μM. The multi-well insert plate was incubated at 37° C. for 2 hours.

BCRP = BCRP (Homo sapiens (Human), UniProt Q9UNQ0); assay: Caco-2 BCRP assessment; assay type: in vitro ADME; details: for BCRP ER: Caco-2 cells, 1 μM, efflux ratio -/+ novobiocin 30 μM, >2 = BCRP substrate; for BCRP substrate status: conclusion from Table 3
Description: Assay d): Caco-2 BCRP Assessment
Caco-2 cells were used to study efflux transport mediated by BCRP. Rate of drug transport by BCRP was determined in the presence and absence of novobiocin, a strong inhibitor of BCRP, which was added to both apical and basolateral compartment sat a final concentration of 30 μM. The final concentrations of test compounds and control compound were at 1 μM. The multi-well insert plate was incubated at 37° C. for 2 hours. Efflux ratio (−inhibitor/+inhibitor)>2 was considered to be a BCRP substrate.

[2] = inhibition of phosphor wt-EGFR, NCI H838 cells, EGF 100 ng/ml

Sequence of HER2 (P04626 23-1255): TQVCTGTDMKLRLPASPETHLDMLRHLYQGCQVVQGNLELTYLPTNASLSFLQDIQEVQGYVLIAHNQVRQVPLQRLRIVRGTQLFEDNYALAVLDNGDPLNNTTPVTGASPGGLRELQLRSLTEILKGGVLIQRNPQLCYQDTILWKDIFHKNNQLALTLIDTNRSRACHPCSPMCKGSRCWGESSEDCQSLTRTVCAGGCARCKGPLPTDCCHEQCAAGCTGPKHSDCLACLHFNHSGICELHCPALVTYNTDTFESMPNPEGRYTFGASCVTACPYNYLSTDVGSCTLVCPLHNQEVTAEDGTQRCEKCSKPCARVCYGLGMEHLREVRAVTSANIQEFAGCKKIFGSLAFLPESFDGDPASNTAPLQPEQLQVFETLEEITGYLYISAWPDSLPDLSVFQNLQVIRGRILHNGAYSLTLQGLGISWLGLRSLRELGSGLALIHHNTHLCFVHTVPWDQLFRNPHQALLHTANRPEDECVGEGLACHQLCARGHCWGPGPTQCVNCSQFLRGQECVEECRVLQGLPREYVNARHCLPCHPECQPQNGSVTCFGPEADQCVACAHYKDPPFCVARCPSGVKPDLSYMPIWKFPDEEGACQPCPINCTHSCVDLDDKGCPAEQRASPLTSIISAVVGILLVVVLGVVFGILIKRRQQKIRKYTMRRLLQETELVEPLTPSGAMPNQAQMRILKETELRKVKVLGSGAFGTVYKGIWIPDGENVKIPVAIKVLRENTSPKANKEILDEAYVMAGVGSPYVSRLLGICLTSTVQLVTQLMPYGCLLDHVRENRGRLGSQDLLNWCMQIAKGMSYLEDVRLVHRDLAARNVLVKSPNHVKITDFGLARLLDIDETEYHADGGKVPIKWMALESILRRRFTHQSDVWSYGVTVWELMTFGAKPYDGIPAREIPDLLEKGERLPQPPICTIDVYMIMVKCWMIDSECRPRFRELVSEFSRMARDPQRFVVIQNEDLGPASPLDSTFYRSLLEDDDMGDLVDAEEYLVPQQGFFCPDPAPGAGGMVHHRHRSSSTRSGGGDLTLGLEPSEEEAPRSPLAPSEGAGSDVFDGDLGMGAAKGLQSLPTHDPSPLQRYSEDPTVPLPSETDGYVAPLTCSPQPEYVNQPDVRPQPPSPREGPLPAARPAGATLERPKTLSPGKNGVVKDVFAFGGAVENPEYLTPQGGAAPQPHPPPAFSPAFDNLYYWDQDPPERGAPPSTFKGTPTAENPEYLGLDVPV

Row | SMILES | IC50 (HER2) | Kp [1] | brain penetration in vivo [1] | IC50 (wt-EGFR) | Pgp substrate status (P-glycoprotein (Pgp)) | efflux ratio at 2 h, 1 μM (P-glycoprotein (Pgp)) | BCRP ER (BCRP) | BCRP substrate status (BCRP) | IC50 (wt-EGFR; [2]) | Mouse Kpu, u [1] | IC50 (hERG channel) | hERG liability (hERG channel)
1 | COc1ccc2ncnc(Nc3ccc(Oc4cc5ncnn5cn4)c(C)c3)c2c1N1C[C@@H]2[C@H]1CCN2C [Example 46, N-(4-([1,2,4]triazolo[1,5-c]pyrimidin-7-yloxy)-3-methylphenyl)-6-methoxy-5-((1R,5R)-2-methyl-2,6-diazabicyclo[3.2.0]heptan-6-yl)quinazolin-4-amine] | 7.3 nM |  |  |  |  |  |  |  | 215 nM |  |  | 
2 | COc1cc(O[C@@H]2CCN(C)CC2(F)F)c2c(Nc3ccc(Oc4cc5ncnn5cn4)c(C)c3)ncnc2c1 [Example 52, (R)—N-(4-([1,2,4]triazolo[1,5-c]pyrimidin-7-yloxy)-3-methylphenyl)-5-((3,3-difluoro-1-methylpiperidin-4-yl)oxy)-7-methoxyquinazolin-4-amine] | 182 nM |  |  |  |  |  |  |  | 800 nM |  |  | 
3 | Cc1cc(Nc2ncnc3ccc(NC4=NC(C)(C)CO4)c(N4CC(N(C)C)C4)c23)ccc1Oc1cc2ncnn2cn1 [Example 54, N4-(4-([1,2,4]triazolo[1,5-c]pyrimidin-7-yloxy)-3-methylphenyl)-N6-(4,4-dimethyl-4,5-dihydrooxazol-2-yl)-5-(3-(dimethylamino)azetidin-1-yl)quinazoline-4,6-diamine] | 190 nM |  |  |  |  |  |  |  | > 10000 nM |  |  | 
4 | Cc1cc(Nc2ncnc3cccc(N4CC5(CN(C)CCO5)C4)c23)ccc1Oc1cc2ncnn2cn1 [Example 55, N-(4-([1,2,4]triazolo[1,5-c]pyrimidin-7-yloxy)-3-methylphenyl)-5-(8-methyl-5-oxa-2,8-diazaspiro[3.5]nonan-2-yl)quinazolin-4-amine] | 912 nM |  |  |  |  |  |  |  | > 10000 nM |  |  | 
5 | CN1CCC(Oc2cccc3ncnc(Nc4ccc(NCc5ccccn5)c(Cl)c4)c23)CC1 [Reference compound 1, 2-chloro-N^4-(5-((1-methylpiperidin-4-yl)oxy)quinazolin-4-yl)-N^1-(pyridin-2-ylmethyl)benzene-1,4-diamine, reference compound] |  |  |  |  |  | 0.57 | 1.1 |  |  |  | < 2000 nM | strong hERG inhibitor

More lines, main results first:

Row | IC50 (HER2) | Kp [1] | brain penetration in vivo [1] | IC50 (wt-EGFR) | Pgp substrate status (P-glycoprotein (Pgp)) | efflux ratio at 2 h, 1 μM (P-glycoprotein (Pgp)) | BCRP ER (BCRP) | BCRP substrate status (BCRP) | IC50 (wt-EGFR; [2]) | Mouse Kpu, u [1] | SMILES | IC50 (hERG channel) | hERG liability (hERG channel)
6 | 9.5 nM | 0.26 | brain penetrable | 12000 nM | not Pgp or BCRP substrates | 1.3 | 0.68 | not Pgp or BCRP substrates |  |  | COc1ccc2ncnc(Nc3ccc(Oc4cc5ncnn5cn4)c(C)c3)c2c1O[C@@H]1CCN(C)CC1(F)F [Example 31, (R)—N-(4-([1,2,4]triazolo[1,5-c]pyrimidin-7-yloxy)-3-methylphenyl)-5-((3,3-difluoro-1-methylpiperidin-4-yl)oxy)-6-methoxyquinazolin-4-amine] | 18000 nM | do not show hERG liability
7 | 8 nM | 0.24 | brain penetrable |  | not Pgp or BCRP substrates | 0.6 | 1.3 | not Pgp or BCRP substrates | 400 nM |  | COc1ccc2ncnc(Nc3ccc(Oc4cc5ncnn5cn4)c(Cl)c3)c2c1O[C@@H]1CCN(C)CC1(F)F [Example 33, (R)—N-(4-([1,2,4]triazolo[1,5-c]pyrimidin-7-yloxy)-3-chlorophenyl)-5-((3,3-difluoro-1-methylpiperidin-4-yl)oxy)-6-methoxyquinazolin-4-amine] | 13300 nM | do not show hERG liability
8 | 11 nM | 0.19 | brain penetrable | 440 nM | not Pgp or BCRP substrates | 0.81 | 1.8 | not Pgp or BCRP substrates |  |  | [2H]C([2H])([2H])Oc1ccc2ncnc(Nc3ccc(Oc4cc5ncnn5cn4)c(C)c3)c2c1O[C@@H]1CCN(C)CC1(F)F [Example 36, (R)—N-(4-([1,2,4]-triazolo[1,5-c]pyrimidin-7-yloxy)-3-methylphenyl)-5-((3,3-difluoro-1-methylpiperidin-4-yl)oxy)-6-(methoxy-d3)quinazolin-4-amine] | > 10000 nM | do not show hERG liability
9 | 176 nM |  |  |  |  |  |  |  | 183 nM |  | COc1cc(O[C@H]2CCN(C)CC2(F)F)c2c(Nc3ccc(Oc4cc5ncnn5cn4)c(C)c3)ncnc2c1 [Example 51, (S)—N-(4-([1,2,4]triazolo[1,5-c]pyrimidin-7-yloxy)-3-methylphenyl)-5-((3,3-difluoro-1-methylpiperidin-4-yl)oxy)-7-methoxyquinazolin-4-amine] |  | 
10 |  |  | not brain penetrable in vivo |  | strong Pgp substrates | > 18.6 | 1.4 |  |  | too low to calculate | CCOc1cc2ncc(C#N)c(Nc3ccc(OCc4ccccn4)c(Cl)c3)c2cc1NC(=O)/C=C/CN(C)C [Reference compound 2, Neratinib, reference compound] | > 10000 nM | 
11 |  |  | not brain penetrable in vivo |  | strong Pgp substrates | 23.8 | 2.1 |  |  | too low to calculate | Cc1cc(Nc2ncnc3ccc(NC4=NC(C)(C)CO4)cc23)ccc1Oc1ccn2ncnc2c1 [Reference compound 3, N4-(4-([1,2,4]triazolo[1,5-a]pyridin-7-yloxy)-3-methylphenyl)-N6-(4,4-dimethyl-4,5-dihydrooxazol-2-yl)quinazoline-4,6-diamine, reference compound] | > 10000 nM | 
